Legend:
[1] = biological target: Serotonin 1 (5-HT1) receptor (Rattus norvegicus) (UniProt P28564+P30940+P19327+P28565); assay: 5HT1/R Eurofins-Panlabs selectivity data (BI); assay type: protein assay; conditions: Compound concentration 10.0 uM
[2] = biological target: Serotonin 2 (5-HT2) receptor (Rattus norvegicus) (UniProt P30994+P08909+P14842); assay: 5HT2/R Eurofins-Panlabs selectivity data (BI); assay type: protein assay; conditions: Compound concentration 10.0 uM
[3] = biological target: 5-hydroxytryptamine receptor 4 (Cavia porcellus) (UniProt O70528); assay: 5HT4/GPIG Eurofins-Panlabs selectivity data (BI); conditions: Compound concentration 10.0 uM
[4] = biological target: Adrenergic receptor alpha-1 (Rattus norvegicus) (UniProt P15823+P23944+P43140); assay: ALPHA1/R Eurofins-Panlabs selectivity data (BI); assay type: protein assay; conditions: Compound concentration 10.0 uM
[5] = biological target: Type-1 angiotensin II receptor (Oryctolagus cuniculus) (UniProt P34976); assay: AT1 Eurofins-Panlabs selectivity data (BI); conditions: Homo sapiens; Compound concentration 10.0 uM
[6] = biological target: Sodium/potassium-transporting ATPase subunit alpha-1 (Sus scrofa) (UniProt P05024); assay: ATP NA+/K+PI Eurofins-Panlabs selectivity data (BI); conditions: Compound concentration 10.0 uM
Cavia porcellus = species on record: Cavia porcellus; assay: ATRANS Eurofins-Panlabs selectivity data (BI); conditions: Compound concentration 10.0 uM
[7] = biological target: Voltage-dependent L-type calcium channel subunit alpha-1C (DHP site) (Rattus norvegicus, UniProt P22002); assay: CA+/DHPSI/RA Eurofins-Panlabs selectivity data (BI); conditions: read-out: % Ctrl
[8] = biological target: Voltage-dependent L-type calcium channel subunit alpha-1C (phenylalkylamine site) (Rattus norvegicus, UniProt P22002); assay: CA+/PAASITE Eurofins-Panlabs selectivity data (BI); conditions: read-out: % Ctrl
[9] = biological target: Carbonic anhydrase 6 (Homo sapiens) (UniProt P23280); assay: CANHYDRASE Eurofins-Panlabs selectivity data (BI); conditions: Compound concentration 10.0 uM
[10] = biological target: Calcitonin-gene-related peptide receptor, CALCRL/RAMP1 (Homo sapiens) (UniProt O60894+Q16602); assay: CGRP/HU Eurofins-Panlabs selectivity data (BI); assay type: protein-complex assay; conditions: Compound concentration 10.0 uM
[11] = biological target: D(2) dopamine receptor (Homo sapiens) (UniProt P14416); assay: D2L/H Eurofins-Panlabs selectivity data (BI); conditions: Compound concentration 10.0 uM
[12] = biological target: D(3) dopamine receptor (Homo sapiens) (UniProt P35462); assay: D3/HU Eurofins-Panlabs selectivity data (BI); conditions: Compound concentration 10.0 uM
[13] = biological target: T1, D(4) dopamine receptor (Homo sapiens) (UniProt P21917); assay: D4.2/H Eurofins-Panlabs selectivity data (BI); conditions: Compound concentration 10.0 uM
T1 sequence (whole entry): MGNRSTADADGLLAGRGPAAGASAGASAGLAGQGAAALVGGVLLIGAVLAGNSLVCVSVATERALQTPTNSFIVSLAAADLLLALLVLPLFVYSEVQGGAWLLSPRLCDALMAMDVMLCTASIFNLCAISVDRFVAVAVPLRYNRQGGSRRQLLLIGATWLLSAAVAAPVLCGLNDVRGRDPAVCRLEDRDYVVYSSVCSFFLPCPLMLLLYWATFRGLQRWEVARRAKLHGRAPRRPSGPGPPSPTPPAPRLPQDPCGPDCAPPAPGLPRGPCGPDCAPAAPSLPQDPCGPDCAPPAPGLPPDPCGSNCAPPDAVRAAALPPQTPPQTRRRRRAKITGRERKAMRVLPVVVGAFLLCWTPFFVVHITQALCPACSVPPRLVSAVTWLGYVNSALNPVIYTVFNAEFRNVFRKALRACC

[14] = biological target: D(1B) dopamine receptor (Homo sapiens) (UniProt P21918); assay: D5/HU Eurofins-Panlabs selectivity data (BI); conditions: Compound concentration 10.0 uM
[15] = biological target: Sodium-dependent dopamine transporter (Homo sapiens) (UniProt Q01959); assay: DATRANS/H Eurofins-Panlabs selectivity data (BI); conditions: Compound concentration 10.0 uM
[16] = biological target: Gamma-aminobutyric acid receptor subunit alpha-1 (Rattus norvegicus) (UniProt P62813); assay: GABAA MUSCIMOL CENT Eurofins-Panlabs selectivity data (BI); conditions: Compound concentration 10.0 uM
[17] = biological target: Gamma-aminobutyric acid receptor subunit alpha-1 (Rattus norvegicus) (UniProt P62813); assay: GABAACENTR Eurofins-Panlabs selectivity data (BI); conditions: Compound concentration 10.0 uM
[18] = biological target: GABA B receptor (Rattus norvegicus) (UniProt Q9Z0U4+O88871); assay: GABAB/RA Eurofins-Panlabs selectivity data (BI); assay type: protein-complex assay; conditions: Compound concentration 10.0 uM
[19] = biological target: Histamine H1 receptor (Homo sapiens) (UniProt P35367); assay: H1/H Eurofins-Panlabs selectivity data (BI); conditions: Compound concentration 10.0 uM
[20] = biological target: Histamine H2 receptor (Homo sapiens) (UniProt P25021); assay: H2/H Eurofins-Panlabs selectivity data (BI); conditions: Compound concentration 10.0 uM
[21] = biological target: Potassium voltage-gated channel subfamily A member 1 (Rattus norvegicus) (UniProt P10499); assay: K+/KA/R Eurofins-Panlabs selectivity data (BI); conditions: Compound concentration 10.0 uM
[22] = biological target: ATP-sensitive inward rectifier potassium channel 1 isoform X1 (Mesocricetus auratus) (UniProt A0A1U8CU73); assay: K+/KATP/HA Eurofins-Panlabs selectivity data (BI); conditions: Compound concentration 10.0 uM
[23] = biological target: Small conductance calcium-activated potassium channel protein 1 (Rattus norvegicus) (UniProt P70606); assay: K+/SKCA Eurofins-Panlabs selectivity data (BI); conditions: Compound concentration 10.0 uM
[24] = biological target: Amine oxidase [flavin-containing] A (MAO-A) (Homo sapiens, UniProt P21397); assay: MAOA Eurofins-Panlabs selectivity data (BI); design: mode of action inhibitor; conditions: compound concentration 10 uM, read-out: % Ctrl
[25] = biological target: Amine oxidase [flavin-containing] B (MAO-B) (Homo sapiens, UniProt P27338); assay: MAOB Eurofins-Panlabs selectivity data (BI); design: mode of action inhibitor; conditions: compound concentration 10 uM, read-out: % Ctrl
[26] = biological target: Muscarinic acetylcholine receptor M1 (Rattus norvegicus) (UniProt P08482); assay: MUSCARIN/OTM Eurofins-Panlabs selectivity data (BI); conditions: Compound concentration 10.0 uM
[27] = biological target: Sodium-dependent noradrenaline transporter (Homo sapiens) (UniProt P23975); assay: NETRANS/H Eurofins-Panlabs selectivity data (BI); conditions: Compound concentration 10.0 uM
[28] = biological target: 5-hydroxytryptamine receptor 1A (Homo sapiens) (UniProt P08908); conditions: Compound concentration 10.0 uM
[29] = biological target: Beta-3 adrenergic receptor (Homo sapiens) (UniProt P13945); conditions: Compound concentration 10.0 uM
Rattus norvegicus = species on record: Rattus norvegicus; conditions: Compound concentration 10.0 uM
[30] = biological target: Sigma non-opioid intracellular receptor 1 (Homo sapiens) (UniProt Q99720); conditions: Compound concentration 10.0 uM
[31] = biological target: Sigma intracellular receptor 2 (Homo sapiens, UniProt Q5BJF2); assay: GPCRScan assay: inhibition of Sigma 2; design: radioligand conc. used [nm] 5.0, parental cells HEKT
tissue or blood = assay type: tissue-based; conditions: Homo sapiens
[32] = biological target: Alpha-2A adrenergic receptor (Homo sapiens) (UniProt P08913); conditions: Compound concentration 10.0 uM
[33] = biological target: Muscarinic acetylcholine receptor M5 (Homo sapiens) (UniProt P08912); conditions: Compound concentration 10.0 uM

Sequence of Voltage-dependent L-type calcium channel subunit alpha-1C (DHP site) (P22002 whole entry): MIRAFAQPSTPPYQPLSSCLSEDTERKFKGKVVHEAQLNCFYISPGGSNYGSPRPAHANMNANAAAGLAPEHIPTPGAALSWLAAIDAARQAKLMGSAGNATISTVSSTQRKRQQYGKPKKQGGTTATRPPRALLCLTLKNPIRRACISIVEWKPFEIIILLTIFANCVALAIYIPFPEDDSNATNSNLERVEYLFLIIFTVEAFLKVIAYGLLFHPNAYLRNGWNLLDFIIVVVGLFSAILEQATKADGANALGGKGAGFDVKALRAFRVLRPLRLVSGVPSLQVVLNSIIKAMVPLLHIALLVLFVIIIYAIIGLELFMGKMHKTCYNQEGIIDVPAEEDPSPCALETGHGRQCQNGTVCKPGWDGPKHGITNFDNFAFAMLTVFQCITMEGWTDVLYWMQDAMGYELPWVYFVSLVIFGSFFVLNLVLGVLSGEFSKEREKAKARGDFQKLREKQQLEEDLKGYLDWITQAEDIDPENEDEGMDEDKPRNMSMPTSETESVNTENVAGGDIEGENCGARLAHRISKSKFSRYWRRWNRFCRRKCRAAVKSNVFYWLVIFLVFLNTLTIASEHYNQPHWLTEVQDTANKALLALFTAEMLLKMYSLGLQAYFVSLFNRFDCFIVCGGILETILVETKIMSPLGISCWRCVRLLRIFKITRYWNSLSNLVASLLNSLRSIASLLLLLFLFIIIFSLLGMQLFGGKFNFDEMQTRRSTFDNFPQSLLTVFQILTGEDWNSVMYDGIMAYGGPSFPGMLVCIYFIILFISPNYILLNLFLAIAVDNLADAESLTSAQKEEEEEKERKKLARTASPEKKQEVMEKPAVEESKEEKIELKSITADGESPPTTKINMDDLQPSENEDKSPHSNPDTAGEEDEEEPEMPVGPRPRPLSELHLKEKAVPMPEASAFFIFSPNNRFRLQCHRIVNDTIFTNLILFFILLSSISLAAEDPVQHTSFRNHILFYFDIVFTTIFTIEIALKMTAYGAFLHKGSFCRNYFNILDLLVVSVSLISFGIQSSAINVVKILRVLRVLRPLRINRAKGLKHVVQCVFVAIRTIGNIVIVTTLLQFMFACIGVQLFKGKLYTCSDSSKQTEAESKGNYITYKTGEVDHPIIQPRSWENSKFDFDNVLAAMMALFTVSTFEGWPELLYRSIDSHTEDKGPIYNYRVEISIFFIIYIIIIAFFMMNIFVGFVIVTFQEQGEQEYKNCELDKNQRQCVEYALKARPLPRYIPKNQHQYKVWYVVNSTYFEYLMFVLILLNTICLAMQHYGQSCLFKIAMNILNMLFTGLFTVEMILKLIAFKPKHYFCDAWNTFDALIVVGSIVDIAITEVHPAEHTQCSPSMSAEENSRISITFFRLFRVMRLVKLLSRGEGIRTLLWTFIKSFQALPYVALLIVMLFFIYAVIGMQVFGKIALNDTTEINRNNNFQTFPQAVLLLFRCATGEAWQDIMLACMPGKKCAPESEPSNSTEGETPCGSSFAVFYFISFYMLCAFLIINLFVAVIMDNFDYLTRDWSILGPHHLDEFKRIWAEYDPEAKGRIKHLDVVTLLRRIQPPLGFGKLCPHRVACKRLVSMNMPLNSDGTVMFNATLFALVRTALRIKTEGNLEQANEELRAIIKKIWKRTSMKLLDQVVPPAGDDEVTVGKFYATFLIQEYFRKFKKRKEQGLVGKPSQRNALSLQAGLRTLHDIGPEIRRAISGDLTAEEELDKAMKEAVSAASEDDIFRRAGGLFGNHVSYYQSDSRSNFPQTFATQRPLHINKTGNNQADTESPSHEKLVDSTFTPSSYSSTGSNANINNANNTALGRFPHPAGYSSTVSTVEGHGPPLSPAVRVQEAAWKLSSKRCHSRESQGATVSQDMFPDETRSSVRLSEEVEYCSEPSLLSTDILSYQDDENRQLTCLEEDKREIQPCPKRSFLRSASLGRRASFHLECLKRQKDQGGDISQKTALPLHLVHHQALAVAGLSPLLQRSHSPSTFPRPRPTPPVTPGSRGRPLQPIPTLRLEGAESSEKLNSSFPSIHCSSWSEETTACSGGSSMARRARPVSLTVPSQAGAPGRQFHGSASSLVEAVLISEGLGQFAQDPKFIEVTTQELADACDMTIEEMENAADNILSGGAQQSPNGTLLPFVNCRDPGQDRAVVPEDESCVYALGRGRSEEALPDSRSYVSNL
Sequence of Voltage-dependent L-type calcium channel subunit alpha-1C (phenylalkylamine site) (P22002 whole entry): as above
Sequence of Sigma intracellular receptor 2 (Q5BJF2 whole entry): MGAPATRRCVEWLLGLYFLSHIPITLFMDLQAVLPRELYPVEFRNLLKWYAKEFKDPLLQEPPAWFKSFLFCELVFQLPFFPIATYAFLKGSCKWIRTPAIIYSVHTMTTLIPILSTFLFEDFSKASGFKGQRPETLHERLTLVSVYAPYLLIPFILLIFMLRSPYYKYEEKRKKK
Sequence of Gamma-aminobutyric acid receptor subunit alpha-1 (Rattus norvegicus) (P62813 whole entry): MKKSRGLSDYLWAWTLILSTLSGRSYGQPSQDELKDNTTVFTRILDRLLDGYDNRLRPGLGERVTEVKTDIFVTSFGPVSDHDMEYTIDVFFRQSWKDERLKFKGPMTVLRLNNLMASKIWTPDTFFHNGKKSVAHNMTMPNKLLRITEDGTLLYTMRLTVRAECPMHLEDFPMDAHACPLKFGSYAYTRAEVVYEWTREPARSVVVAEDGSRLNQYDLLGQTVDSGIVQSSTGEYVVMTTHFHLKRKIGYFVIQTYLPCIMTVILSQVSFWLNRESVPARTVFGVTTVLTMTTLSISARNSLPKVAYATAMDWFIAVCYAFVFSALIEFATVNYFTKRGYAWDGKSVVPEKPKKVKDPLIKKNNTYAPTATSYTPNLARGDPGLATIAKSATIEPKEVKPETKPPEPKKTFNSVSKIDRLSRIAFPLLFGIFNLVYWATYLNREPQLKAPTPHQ
Sequence of Histamine H1 receptor (Homo sapiens) (P35367 whole entry): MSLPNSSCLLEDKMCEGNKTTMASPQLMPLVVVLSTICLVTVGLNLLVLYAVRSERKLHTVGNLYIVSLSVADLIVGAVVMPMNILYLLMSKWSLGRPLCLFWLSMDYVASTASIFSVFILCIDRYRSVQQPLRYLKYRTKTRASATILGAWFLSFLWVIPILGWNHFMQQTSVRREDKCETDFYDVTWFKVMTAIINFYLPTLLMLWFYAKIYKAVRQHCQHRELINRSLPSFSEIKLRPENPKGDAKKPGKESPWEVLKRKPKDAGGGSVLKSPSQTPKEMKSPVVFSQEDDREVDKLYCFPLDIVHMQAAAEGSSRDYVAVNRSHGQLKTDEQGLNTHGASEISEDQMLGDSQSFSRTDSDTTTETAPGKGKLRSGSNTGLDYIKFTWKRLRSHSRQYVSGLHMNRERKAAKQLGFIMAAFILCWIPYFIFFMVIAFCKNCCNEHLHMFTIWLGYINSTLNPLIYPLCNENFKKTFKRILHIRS
Sequence of 5-hydroxytryptamine receptor 1A (Homo sapiens) (P08908 whole entry): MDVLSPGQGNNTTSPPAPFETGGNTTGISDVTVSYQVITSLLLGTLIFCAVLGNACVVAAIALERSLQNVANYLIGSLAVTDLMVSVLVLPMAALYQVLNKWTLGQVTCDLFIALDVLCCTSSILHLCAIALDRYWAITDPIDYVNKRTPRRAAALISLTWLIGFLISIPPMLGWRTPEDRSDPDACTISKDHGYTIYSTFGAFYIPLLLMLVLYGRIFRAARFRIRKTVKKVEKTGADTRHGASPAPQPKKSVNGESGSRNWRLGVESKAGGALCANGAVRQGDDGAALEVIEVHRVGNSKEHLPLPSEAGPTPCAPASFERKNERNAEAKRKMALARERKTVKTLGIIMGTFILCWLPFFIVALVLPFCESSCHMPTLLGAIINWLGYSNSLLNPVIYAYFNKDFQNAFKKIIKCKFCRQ
Sequence of D(1B) dopamine receptor (Homo sapiens) (P21918 whole entry): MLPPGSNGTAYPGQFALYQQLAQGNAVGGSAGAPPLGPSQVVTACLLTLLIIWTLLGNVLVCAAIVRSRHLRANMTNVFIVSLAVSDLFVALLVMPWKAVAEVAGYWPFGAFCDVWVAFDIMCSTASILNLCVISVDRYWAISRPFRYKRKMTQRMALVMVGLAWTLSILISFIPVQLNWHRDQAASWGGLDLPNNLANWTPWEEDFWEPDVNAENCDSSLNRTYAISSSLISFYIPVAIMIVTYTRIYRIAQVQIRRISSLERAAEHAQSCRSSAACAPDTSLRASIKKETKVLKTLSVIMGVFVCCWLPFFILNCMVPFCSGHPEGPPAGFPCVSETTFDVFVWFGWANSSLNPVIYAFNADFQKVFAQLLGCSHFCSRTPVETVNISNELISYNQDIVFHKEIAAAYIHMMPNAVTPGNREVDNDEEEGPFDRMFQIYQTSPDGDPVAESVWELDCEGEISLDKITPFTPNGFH
Sequence of Alpha-2A adrenergic receptor (Homo sapiens) (P08913 whole entry): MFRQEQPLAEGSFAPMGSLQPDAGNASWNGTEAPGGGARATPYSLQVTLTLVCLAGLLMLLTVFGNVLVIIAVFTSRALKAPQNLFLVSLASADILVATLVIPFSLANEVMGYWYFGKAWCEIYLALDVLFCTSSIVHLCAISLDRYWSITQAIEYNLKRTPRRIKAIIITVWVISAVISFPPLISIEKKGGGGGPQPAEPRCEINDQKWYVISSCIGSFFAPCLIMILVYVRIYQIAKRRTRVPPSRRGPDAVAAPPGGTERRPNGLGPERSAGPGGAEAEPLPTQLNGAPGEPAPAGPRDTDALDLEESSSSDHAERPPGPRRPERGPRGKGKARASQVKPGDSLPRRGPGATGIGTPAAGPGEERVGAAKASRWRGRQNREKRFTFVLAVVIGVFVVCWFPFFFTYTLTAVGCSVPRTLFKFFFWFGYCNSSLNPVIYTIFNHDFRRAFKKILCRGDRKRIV
Sequence of Sigma non-opioid intracellular receptor 1 (Homo sapiens) (Q99720 whole entry): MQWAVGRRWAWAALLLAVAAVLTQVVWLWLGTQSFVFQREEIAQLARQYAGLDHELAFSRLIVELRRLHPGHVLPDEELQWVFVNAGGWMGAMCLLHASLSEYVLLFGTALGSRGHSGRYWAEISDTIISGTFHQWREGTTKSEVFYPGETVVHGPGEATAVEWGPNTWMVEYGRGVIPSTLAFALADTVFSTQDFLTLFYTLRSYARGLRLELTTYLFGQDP

C[C@H](NC(=O)c1cnc2n1[C@](C)(Cc1ccc(C#N)cc1)C(=O)N2c1cc(Cl)c(F)c(Cl)c1)C(=O)NC1(c2ccccn2)CC1 [BI 1950]
residual activity [1]: 100% | residual activity [2]: 98% | residual activity [3]: 83% | residual activity [4]: 102% | residual activity [5]: 90% | residual activity [6]: 109% | residual activity (Cavia porcellus): 92% | activity at 0.03 µM ([7]; compound concentration 0.03 uM): 97% (not active) | activity at 0.1 µM ([7]; compound concentration 0.1 uM): 98% (not active) | activity at 0.3 µM ([7]; compound concentration 0.3 uM): 94% (not active) | activity at 1 µM ([7]; compound concentration 1 uM): 81% (not active) | activity at 3 µM ([7]; compound concentration 3 uM): 58% (not active) | activity at 10 µM ([7]; compound concentration 10 uM): 28% | activity at 0.03 µM ([8]; compound concentration 0.03 uM): 109% (not active) | activity at 0.1 µM ([8]; compound concentration 0.1 uM): 110% (not active) | activity at 0.3 µM ([8]; compound concentration 0.3 uM): 102% (not active) | activity at 1 µM ([8]; compound concentration 1 uM): 86% (not active) | activity at 3 µM ([8]; compound concentration 3 uM): 76% (not active) | activity at 10 µM ([8]; compound concentration 10 uM): 49.5% | residual activity [9]: 86% | residual activity [10]: 105% | residual activity [11]: 115% | residual activity [12]: 88% | residual activity [13]: 86% | residual activity [14]: 86% | residual activity [15]: 67% | residual activity [16]: 96% | residual activity [17]: 99% | residual activity [18]: 111% | residual activity [19]: 109% | residual activity [20]: 74% | residual activity [21]: 92% | residual activity [22]: 107% | residual activity [23]: 108% | activity at 10 µM [24]: 107% (not active) | activity at 10 µM [25]: 101% (not active) | residual activity [26]: 77% | residual activity [27]: 72% | inhibition [28]: -9.74% | inhibition [29]: 12.4% | inhibition (Rattus norvegicus): 13.1% | inhibition [30]: -6.44%

C[C@@]1(Cc2ccc(C#N)cc2)C(=O)N(c2cc(Cl)cc(Cl)c2)c2ncc(C(=O)NC3(c4nc(C5CCC5)no4)CC3)n21 [BI 9446]
Ki ([31]; read-out: Ki): 558 nM | Ki ([31]; read-out: pKi (converted)): 507 nM | IC50 (tissue or blood): > 1000 nM | inhibition [32]: 12.1% | inhibition [33]: -8.46%
